Test results published in PubChem BioAssay AID1421 (Emory University Molecular Libraries Screening Center, 2008).
Active and inactive are the calls of the source. No rule for the calls is given here.

Molecular target: Prostaglandin E2 receptor EP2 subtype (Homo sapiens) (UniProt P43116)
Test: compounds shifting PGE2 potency at EP2 – cell-based, human EP2, PGE2 EC50 shift, dose response (AID 1421)
Settings: EP2-expressing cells, PGE2 EC50 shift by compound

Prostaglandin E2 receptor EP2 subtype (Homo sapiens), sequence (P43116 whole entry, looked up): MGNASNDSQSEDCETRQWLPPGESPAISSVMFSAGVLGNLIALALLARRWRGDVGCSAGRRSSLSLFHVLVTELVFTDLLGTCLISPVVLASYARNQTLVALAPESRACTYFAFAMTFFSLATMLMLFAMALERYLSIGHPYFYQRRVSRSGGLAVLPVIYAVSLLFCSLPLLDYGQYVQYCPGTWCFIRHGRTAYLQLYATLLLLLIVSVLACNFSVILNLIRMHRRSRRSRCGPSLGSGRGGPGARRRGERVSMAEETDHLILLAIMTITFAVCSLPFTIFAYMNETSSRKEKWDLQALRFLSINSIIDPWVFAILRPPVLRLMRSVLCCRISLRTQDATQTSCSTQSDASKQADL

Question: With `COc1ccccc1NC(=O)c1c(C)oc2c1CCCC2` as the compound, how does the outcome read?
Answer: The outcome was “active”.

Question: With `CCc1ccccc1NC1c2ccccc2C(=O)N1c1cc(C)ccn1` (centres undefined) as the compound, how does the outcome read?
Answer: The outcome was “active”.

Question: For `CC(C)OC(=O)c1c(NC(=O)c2cccs2)sc2c1CCCC2`, which outcome is on record?
Answer: Its outcome is “active”.

Question: For `O=C(Nc1cc(C(F)(F)F)ccc1-n1cncn1)c1ccc(-c2ccccc2)cc1`, which outcome is on record?
Answer: Its outcome is “active”.

Question: For `CC(C)(C)C1CCC(OC(=O)c2ccncc2)CC1` (centres undefined), which outcome is on record?
Answer: Its outcome is “active”.

Question: For `O=C(CSc1nnc(-c2ccc(Cl)cc2)n1Cc1ccco1)c1cccs1`, which outcome is on record?
Answer: The outcome was “active”.

Question: With `COc1ccc2c(c1)c(=O)c(Br)c(C)n2Cc1ccccc1` as the compound, how does the outcome read?
Answer: Its outcome is “active”.

Question: With `CCCc1cc(-c2n[nH]c(=S)n2C(C)c2ccccc2)cs1` (centres undefined) as the compound, how does the outcome read?
Answer: Its outcome is “active”.

Question: For `CCOc1ccccc1NC1c2ccccc2C(=O)N1c1ccc(C)cn1` (centres undefined), which outcome is on record?
Answer: Its outcome is “active”.

Question: With `O=C(O)c1ccc(-c2nc(-c3cccc(C(F)(F)F)c3)cs2)cc1` as the compound, how does the outcome read?
Answer: Its outcome is “active”.

Question: For `Cc1ccc(O)c(C2=Nc3ccccc3N=C(c3cccs3)C2)c1`, which outcome is on record?
Answer: The outcome was “active”.

Same assay, conditions: EP2-expressing cells, PGE2 EC50 shift by compound; measured here: PGE2 EC50 at 6.7 uM compound

Question: `COc1cc(CN2CCC(C(=O)N3CCN(c4ccccc4F)CC3)CC2)cc(OC)c1OC` was tested. Which PGE2 EC50 with compound did it give?
Answer: Its PGE2 EC50 with compound is 0.75 nM.

Question: For `CC(=O)c1cc(C#N)c(SCc2ccccc2)nc1C`, which PGE2 EC50 with compound is on record?
Answer: Its PGE2 EC50 with compound is 0.83 nM.

Question: Which PGE2 EC50 with compound does the source give for `C#CCn1c(S(=O)(=O)Cc2ccccc2Cl)nc(-c2ccccc2)c1-c1ccccc1` here?
Answer: The PGE2 EC50 with compound was 2.66 nM.

Question: `Cc1cccc(Cn2c(Cc3ccccc3)nc3ccccc32)c1` was tested. Which PGE2 EC50 with compound did it give?
Answer: Its PGE2 EC50 with compound is 0.71 nM.

Question: How did the PGE2 EC50 with compound turn out when `COc1ccccc1NC(=O)c1c(C)oc2c1CCCC2` was run?
Answer: Its PGE2 EC50 with compound is 1.19 nM.

Question: `O=c1[nH]c2ccc(Br)cc2c(-c2ccccc2)c1N1CCOCC1` was tested. Which PGE2 EC50 with compound did it give?
Answer: Its PGE2 EC50 with compound is 1.07 nM.

Question: How did the PGE2 EC50 with compound turn out when `COC(=O)c1c(C)nc2ccccc2c1-c1ccccc1` was run?
Answer: The PGE2 EC50 with compound was 1.54 nM.

Question: For `C=CCc1cccc(/C=N/c2nc3ccccc3n2CC)c1O`, which PGE2 EC50 with compound is on record?
Answer: Its PGE2 EC50 with compound is 0.63 nM.

Question: How did the PGE2 EC50 with compound turn out when `CCn1c2ccccc2c2cc(/C=N/n3c(C)nnc3C)ccc21` was run?
Answer: Its PGE2 EC50 with compound is 1.15 nM.

Question: `Clc1ccc(-c2nc3ccccn3c2CN2CCCCC2)cc1` was tested. Which PGE2 EC50 with compound did it give?
Answer: The PGE2 EC50 with compound was 1.26 nM.

Question: With `CCCCOP(=O)(OCCCC)C(Nc1ccccc1)c1ccc2c(c1)OCO2` (centres undefined) as the compound, how does the PGE2 EC50 with compound read?
Answer: The PGE2 EC50 with compound was 0.8 nM.

Question: How did the PGE2 EC50 with compound turn out when `Cc1ccc(C(=O)OCC(=O)Nc2ccccc2Sc2ccccc2)cc1C` was run?
Answer: The PGE2 EC50 with compound was 0.85 nM.

Question: `O=C(Nc1ccccc1-c1nc2ccccc2s1)C1=COCCO1` was tested. Which PGE2 EC50 with compound did it give?
Answer: The PGE2 EC50 with compound was 0.46 nM.

Question: How did the PGE2 EC50 with compound turn out when `COc1cnc(SCc2c(Cl)cccc2Cl)nc1Cl` was run?
Answer: Its PGE2 EC50 with compound is 1.76 nM.

Question: For `OC1(c2ccc(Br)cc2)CN(c2ccccc2)C2=[N+]1CCS2` (centres undefined), which PGE2 EC50 with compound is on record?
Answer: The PGE2 EC50 with compound was 1.17 nM.

Question: Which PGE2 EC50 with compound does the source give for `CC(C)n1cc(-c2ccc(Cl)cc2)cc(C#N)c1=O` here?
Answer: Its PGE2 EC50 with compound is 1.21 nM.

Question: `Cc1cccc(CSc2ncnc3ccccc23)c1` was tested. Which PGE2 EC50 with compound did it give?
Answer: Its PGE2 EC50 with compound is 0.87 nM.

Question: `CCOC(=O)c1c(/N=C/C2C(=O)CCCC2=O)sc2c1CCCC2` was tested. Which PGE2 EC50 with compound did it give?
Answer: Its PGE2 EC50 with compound is 1.32 nM.

Question: Which PGE2 EC50 with compound does the source give for `Cc1cccc(/C=C/c2nc3ccccc3c(=O)n2Cc2ccccc2)c1` here?
Answer: The PGE2 EC50 with compound was 2.67 nM.

Question: For `Cc1ccc2c(c1)-c1nc3ccccc3cc1C2=NC1CCCCC1`, which PGE2 EC50 with compound is on record?
Answer: The PGE2 EC50 with compound was 1.41 nM.

Question: How did the PGE2 EC50 with compound turn out when `CC(C)Oc1ccc(Cc2n[nH]c(=S)n2Cc2ccccc2)cc1Cl` was run?
Answer: The PGE2 EC50 with compound was 1.25 nM.

Question: `COc1ccc(Cl)cc1-n1c(C)ccc1C` was tested. Which PGE2 EC50 with compound did it give?
Answer: Its PGE2 EC50 with compound is 1.06 nM.

Question: `O=C(c1ccco1)N1N=C(c2ccc(Br)cc2)CC1(O)C(F)(F)F` (centres undefined) was tested. Which PGE2 EC50 with compound did it give?
Answer: The PGE2 EC50 with compound was 0.84 nM.

Question: Which PGE2 EC50 with compound does the source give for `COCC(=O)Nc1sc2c(c1C(=O)OC)CCC(C)C2` (centres undefined) here?
Answer: Its PGE2 EC50 with compound is 1.32 nM.

Question: With `O=c1c2c(n3cnnc3n1C1CCCCC1)-c1ccccc1CC21CCCCC1` as the compound, how does the PGE2 EC50 with compound read?
Answer: Its PGE2 EC50 with compound is 0.33 nM.

Question: How did the PGE2 EC50 with compound turn out when `O=C1N2c3ccccc3CCc3cccc(c32)C1(O)C(F)(F)F` (centres undefined) was run?
Answer: Its PGE2 EC50 with compound is 0.81 nM.

Question: `CCn1c2ccc(OC)cc2c2nc3ccccc3nc21` was tested. Which PGE2 EC50 with compound did it give?
Answer: The PGE2 EC50 with compound was 2.47 nM.

Question: `Cc1nn(Cc2c(Cl)cccc2Cl)c(C)c1C(=O)NCc1ccc(C)n1C` was tested. Which PGE2 EC50 with compound did it give?
Answer: Its PGE2 EC50 with compound is 1.18 nM.

Question: With `CCc1ccccc1NC1c2ccccc2C(=O)N1c1cc(C)ccn1` (centres undefined) as the compound, how does the PGE2 EC50 with compound read?
Answer: The PGE2 EC50 with compound was 2.49 nM.

Question: For `O=C(CNC1CCCCC1)N1CCC2(CC1)OCCO2`, which PGE2 EC50 with compound is on record?
Answer: Its PGE2 EC50 with compound is 1.35 nM.

Question: How did the PGE2 EC50 with compound turn out when `CC(=O)Oc1ccc2ccccc2c1C(NC(=O)Cc1ccccc1)c1ccccc1` (centres undefined) was run?
Answer: Its PGE2 EC50 with compound is 1.1 nM.

Question: Which PGE2 EC50 with compound does the source give for `O=C(/C(=C/O)N=Nc1ccccc1)c1ccc(Cl)cc1` here?
Answer: Its PGE2 EC50 with compound is 1.12 nM.

Question: `CC(C)OC(=O)c1c(NC(=O)c2cccs2)sc2c1CCCC2` was tested. Which PGE2 EC50 with compound did it give?
Answer: The PGE2 EC50 with compound was 1.01 nM.

Question: Which PGE2 EC50 with compound does the source give for `C=CCSc1nc(Oc2ccccc2)c2sccc2n1` here?
Answer: Its PGE2 EC50 with compound is 2.43 nM.

Question: With `Cc1oncc1-c1csc(-c2ccccc2Cl)n1` as the compound, how does the PGE2 EC50 with compound read?
Answer: The PGE2 EC50 with compound was 1 nM.

Question: With `Cc1ccccc1-n1c(SCC(=O)N2CCCC2)nnc1-c1ccccn1` as the compound, how does the PGE2 EC50 with compound read?
Answer: Its PGE2 EC50 with compound is 1.28 nM.

Question: With `O=C(Nc1cc(C(F)(F)F)ccc1-n1cncn1)c1ccc(-c2ccccc2)cc1` as the compound, how does the PGE2 EC50 with compound read?
Answer: The PGE2 EC50 with compound was 1.15 nM.

Question: `Cc1cc(C)c2cc(C)c(SCC(=O)NCc3ccco3)nc2c1` was tested. Which PGE2 EC50 with compound did it give?
Answer: The PGE2 EC50 with compound was 1.03 nM.

Question: Which PGE2 EC50 with compound does the source give for `CSc1nc(Oc2ccc(F)cc2)c2ccccc2n1` here?
Answer: Its PGE2 EC50 with compound is 0.61 nM.

Question: Which PGE2 EC50 with compound does the source give for `CN(C)c1oc(-c2ccccc2Cl)nc1P(=O)(c1ccccc1)c1ccccc1` here?
Answer: The PGE2 EC50 with compound was 1.17 nM.

Question: `Cc1ccc(-n2c(=S)[nH]c3c(oc4ccccc43)c2=O)cc1C` was tested. Which PGE2 EC50 with compound did it give?
Answer: The PGE2 EC50 with compound was 1.76 nM.

Question: How did the PGE2 EC50 with compound turn out when `Cc1sc2ncnc(N(C)Cc3cccs3)c2c1C` was run?
Answer: The PGE2 EC50 with compound was 2.57 nM.

Question: Which PGE2 EC50 with compound does the source give for `CCOC(=O)C1=NN(c2ccc(C)cc2)C2(S1)SC(C(C)=O)=C(C)N2c1ccccc1` (centres undefined) here?
Answer: Its PGE2 EC50 with compound is 0.31 nM.

Question: How did the PGE2 EC50 with compound turn out when `Cc1cc2ccccc2nc1SCC(=O)NC1CCCC1` was run?
Answer: Its PGE2 EC50 with compound is 1.4 nM.

Question: How did the PGE2 EC50 with compound turn out when `CCOc1cccc(CNc2ccc(O)cc2)c1OCc1ccc(Cl)cc1` was run?
Answer: Its PGE2 EC50 with compound is 1.41 nM.

Question: `O=C(Nc1nc(-c2cccs2)c(-c2ccccc2)s1)c1ccco1` was tested. Which PGE2 EC50 with compound did it give?
Answer: The PGE2 EC50 with compound was 2.42 nM.

Question: How did the PGE2 EC50 with compound turn out when `CC1(C)Cc2c(C#N)c(N3CCCC3)nc(-c3ccco3)c2CO1` was run?
Answer: The PGE2 EC50 with compound was 2.33 nM.

Question: How did the PGE2 EC50 with compound turn out when `COCCNC(=O)C(c1ccc(F)cc1)N(CC1CCCO1)C(=O)CCC(=O)Nc1ccccn1` (centres undefined) was run?
Answer: The PGE2 EC50 with compound was 2.09 nM.
